pKi: −log10 of the molar value. Read-outs that look alike come from different tables or passages of the source.
What was measured:
[1] = molecular target: T1, rat α2B (Rattus norvegicus, UniProt P19328); assay: Receptor binding, [3H]rauwolscine, CHO-RNG cells expressing rat α2B
T1 construct: expressed in transfected cells; host or cells: CHO cells (CHO-RNG)
T1 sequence (P19328 1-453): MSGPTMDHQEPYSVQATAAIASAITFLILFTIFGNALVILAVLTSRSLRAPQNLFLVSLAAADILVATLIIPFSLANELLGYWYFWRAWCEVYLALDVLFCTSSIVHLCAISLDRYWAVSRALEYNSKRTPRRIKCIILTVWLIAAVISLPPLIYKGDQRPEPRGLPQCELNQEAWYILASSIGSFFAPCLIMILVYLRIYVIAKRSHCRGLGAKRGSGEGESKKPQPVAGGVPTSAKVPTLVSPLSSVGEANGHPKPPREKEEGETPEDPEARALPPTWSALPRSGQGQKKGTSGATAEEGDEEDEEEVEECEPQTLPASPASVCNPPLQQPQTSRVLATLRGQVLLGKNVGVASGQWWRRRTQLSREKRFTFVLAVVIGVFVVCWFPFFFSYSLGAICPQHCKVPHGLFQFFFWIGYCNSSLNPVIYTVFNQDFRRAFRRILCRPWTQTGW
Method: (§1) Cell preparation: Chinese hamster ovary (CHO) cells expressing the human α2A and human α2C (CHO-C10 and CHO-C4 respectively) receptors and CHO cells (CHO-RNG) expressing the rat α2B, adrenoceptor were grown to near confluence in Dulbecco's modified Eagle's medium supplemented with 10% fetal bovine serum using standard cell culture methods. Cells were harvested by scraping and placed into cold buffer of the following composition: 50 mM Tris-HCl, 5 mM EDTA, pH 7.4). […] The pellet fraction was washed (resuspended in Tris-HCl, pH 8 buffer and centrifuged for 15-20 minutes at 49,000× g) 2 times and stored at -100° until binding assay.
(§2) Binding Studies: The radioligands [^3 H]rauwolscine (specific activity 80 Ci/mmol) and [^3 H]prazosin (specific activity 76 Ci/mmol) were obtained from New England Nuclear, Boston, Mass. Frozen membrane pellet was resuspended in 25 mM glycine/glycine, pH 7.5 and incubated with radioligand under the following conditions: CHO-C10, CHO-RNG, CHO-C4-[^3 H]rauwolscine, 22° C., 30 minutes; RKC-[^3 H]rauwolscine, 0° C., 120 minutes; and, HCC-[^3 H]prazosin, 22° C., 30 minutes in a final volume of 500 ul. At the end of the incubation period, the samples were filtered through glass filters (Whatman GF/B) in a 96 well cell harvester and rapidly washed four times with 4 mL of iced-cold 50 mM Tris-HCl buffer. The filters were then oven dried and transferred to scintillation vials containing 10 mL of Beckman's Ready Protein® scintillation cocktail for counting. […] Protein concentrations were determined with a protein assay kit from Bio Rad. Binding isotherms, equilibrium dissociation and affinity constants were analyzed and determined by the non-linear least squares curve fitting programs EBDA (BioSoft) or AccuFit Competition/Saturation by Beckman.
(§3) Cell Preparation: Chinese hamster ovary (CHO) cells expressing the human α2A (CHO-C10) and the rate α2B (CHO-RNG) […] were grown to near confluence in Dulbecco's modified Eagle's medium supplemented with 10% fetal bovine serum using standard cell culture methods. Cells were harvested by scraping and placed into cold buffer of the following composition: 50 mM Tris-HCl, 5 mM EDTA, pH 7.4). […] The pellet fraction was washed (resuspended in Tris-HCl, pH 8 buffer and centrifuged for 15-20 minutes at 49,000× g) 2 times and stored at […] until binding assay.
(§4) The radioligands [^3 H] rauwolscine (specific activity 80 Ci/mmol) and [^3 H] prazosin (specific activity 76 Ci/mmol) were obtained from New England Nuclear, Boston, Mass. Frozen membrane pellet was resuspended in 25 mM glycine/glycine, pH 7.4 and incubated with radioligand under the following conditions: CHO-C10, CHO-RNG, CHO-C4-[^3 H]rauwolscine, 22° C., 30 min.; and, HCC-[^3 H]prazowsin, 22° C., 30 minutes in a final volume of 500 ul. At the end of the incubation period, the samples were filtered through glass fiber filters (Whatman GF/B) in a 96 well cell harvester and rapidly washed four times which 4 mL of iced-cold 50 mM Tris-CHI buffer. The filters were then oven dried and transferred to scintillation vials containing 5 mL of Beckman's Ready Protein® scintillation cocktail for counting. […] Protein concentrations were determined with a protein assay kit from Bio lad. Binding isotherms, equilibrium dissociation and affinity constants were analyzed and determined by the non-linear least squares curve fitting programs AccuFit Competition/Saturation by Beckman.
(§5) Representative compounds of the present invention were tested according to the procedures given above. […] The receptor binding studies and K1 are measures of the affinity of a compound for a particular receptor.

[2] = molecular target: T2, human α2A (Homo sapiens, UniProt P08913); assay: Receptor binding, [3H]rauwolscine, CHO-C10 cells expressing human α2A; details: CHO-C10, 22° C., 30 min
T2 construct: expressed in transfected cells; host or cells: CHO cells (CHO-C10)
T2 sequence (P08913 1-465): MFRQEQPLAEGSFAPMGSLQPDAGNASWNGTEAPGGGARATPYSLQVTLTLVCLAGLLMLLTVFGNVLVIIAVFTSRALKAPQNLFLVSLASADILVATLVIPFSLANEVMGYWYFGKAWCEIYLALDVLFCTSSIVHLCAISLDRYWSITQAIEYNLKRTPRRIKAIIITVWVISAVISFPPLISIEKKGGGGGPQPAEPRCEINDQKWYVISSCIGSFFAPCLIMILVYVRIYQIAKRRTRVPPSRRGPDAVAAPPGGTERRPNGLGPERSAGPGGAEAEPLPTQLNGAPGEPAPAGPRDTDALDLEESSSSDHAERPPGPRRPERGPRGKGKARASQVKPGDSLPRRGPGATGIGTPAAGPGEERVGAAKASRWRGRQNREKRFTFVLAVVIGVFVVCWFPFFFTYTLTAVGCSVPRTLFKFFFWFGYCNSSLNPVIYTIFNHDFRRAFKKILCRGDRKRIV
Method: as §1, §2, §3, §4, §5

[3] = molecular target: α1; assay: Receptor binding, [3H]prazosin, human cerebral cortex membranes (HCC); details: 22° C., 30 min
Method: Tissue preparation: Membrane suspensions were prepared from human cerebral cortex ([…], for α1 receptors) obtained from the UCI Organ and Tissue Bank. Briefly, tissues (1 g) were homogenized in 25 mL of ice-cold 5 mM Tris, pH 7.4 with a Polytron homogenizer for 30 sec at setting #7, and centrifuged for
10-12 minutes at 300× g at 4° C. The supernatant was filtered through 2 layers of gauze and diluted 1:2 with 50 mM Tris-HCl buffer, pH 7.4, then centrifuged at 49,000× g for 20 minutes. The pellet fraction was washed 3 times (resuspended in Tris-HCl buffer and centrifuged for 20 minutes; at 49,000× g). The pellet was then stored at -80° C. until the binding assay.
as §2, §4, §5

[4] = molecular target: I2A; assay: Receptor binding, I2A
[5] = molecular target: I2B; assay: Receptor binding, I2B
[6] = [3H]rauwolscine, CHO-RNG, 22° C., 30 min, read-out: Ki α2B

SMILES | pKi [1] | pKi [2] | pKi [3] | pKi [4] | pKi [1, 6] | pKi [5]
Cc1ccccc1NC1=NCCN1 [Example 1] | 7.31 | 8.05 | 5.30 | 5.92 |  | 
Cc1c(NC2=NCCN2)ccc2c1NCCN2 [Example 8] |  | 8.02 | 5.06 | 4.00 | 6.86 | 5.00
Cc1c(NC2=NCCN2)ccc2c1NCCO2 [Example 16] |  | 8.92 | 6.33 | 4.00 | 7.52 | 4.92
Cc1c(NC2=NCCN2)ccc2c1NC(=O)CO2 [Example 15] |  | 7.77 | 5.65 |  | 6.62 | 
COc1c(C(C)(C)C)cc(C)c(Nc2ncc[nH]2)c1C [Example 22] |  | 8.31 | 5.38 | 4.00 | 6.66 | 6.06
COc1ccc(NC2=NCCN2)c(C)c1OC [Example 12] |  | 8.28 | 5.84 | 4.00 | 6.71 | 6.29
Nc1cc(Cl)c(NC2=NCCN2)c(Cl)c1 [Example 3] |  | 8.54 | 6.74 | 4.19 | 8.32 | 4.41
Brc1c(NC2=NCCN2)ccc2c1NCCN2 [Example 9] |  | 8.21 | 5.95 | 5.12 | 7.33 | 5.34
Cc1c(NC2=NCCN2)ccc2c1OCCO2 [Example 13] | 8.40 | 9.60 | 6.89 | 4.00 |  | 5.91
c1cc2c(cc1NC1=NCCN1)NCCN2 [Example 7] |  | 7.46 | 5.29 | 4.00 | 6.58 | 5.00
c1cc2c(cc1NC1=NCCN1)OCCO2 [Example 11] | 7.55 |  | 5.62 | 5.96 |  | 5.69
O=C1COc2ccc(NC3=NCCN3)cc2N1 [Example 14] |  | 7.28 | 5.05 | 5.35 | 6.07 | 5.19
Cc1cccc(Nc2ncc[nH]2)c1C [Example 18] |  | 7.28 | 5.28 | 6.85 | 6.53 | 7.89
Cc1c(O)cccc1Nc1ncc[nH]1 [Example 20] |  | 7.52 | 4.95 |  | 6.05 | 
CC1CNc2c(ccc(NC3=NCCN3)c2Br)N1 (stereo not drawn) [Example 10] |  | 7.62 | 5.18 | 4.61 | 6.71 | 5.49
